Results reported in the supplement of paper PMC6580486.
Where a name gives a salt, the structure may show the parent alone.

How the values were obtained:
PCB-490-5 = tested on: PCB-490-5 (human epithelioid sarcoma primary culture)
Method: (§1)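 60-agent targeted drug screens (Drug Screen V3 on epithelioid sarcoma cultures PCB490-3/4/5, PCB495, EPS cell lines ESX, VA-ES-BJ, FU-EPS-1 and SkMc myoblasts; PPTI screen v2.1 on human UPS PCB197 and canine UPS S1-12). 384-well plates, 72 h, CellTiter-Glo viability; IC50 by Hill curve fit. 10000 nM = no IC50 achieved (top reported value).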

SkMc = tested on: SkMc
Method: as §1

FU-EPS-1 = tested on: FU-EPS-1
Method: as §1

PCB-495 = tested on: PCB-495 (human epithelioid sarcoma primary culture)
Method: as §1

pcb-00197 = tested on: pcb-00197 (human undifferentiated pleomorphic sarcoma culture)
Method: as §1

VA-ES-BJ = tested on: VA-ES-BJ
Method: as §1

PCB-490-4 = tested on: PCB-490-4 (human epithelioid sarcoma primary culture)
Method: as §1

s1-12 = tested on: s1-12 (canine undifferentiated pleomorphic sarcoma culture)
Method: as §1

ESX = tested on: ESX
Method: as §1

PCB-490-3 = tested on: PCB-490-3 (human epithelioid sarcoma primary culture)
Method: as §1

Row | Structure (SMILES) | IC50 cell viability (PCB-490-5) [µM] | IC50 cell viability (SkMc) [µM] | IC50 cell viability (FU-EPS-1) [µM] | IC50 cell viability (PCB-495) [µM] | IC50 cell viability (pcb-00197) [µM] | IC50 cell viability (VA-ES-BJ) [µM] | IC50 cell viability (PCB-490-4) [µM] | IC50 cell viability (s1-12) [µM] | IC50 cell viability (ESX) [µM] | IC50 cell viability (PCB-490-3) [µM]
1 | Nc1ccccc1NC(=O)c1ccc(CNC(=O)OCc2cccnc2)cc1 [Entinostat] | > 10 | > 10 | 2.69 | > 10 | > 10 | 1.18 | > 10 | 0.92 | > 10 | > 10
2 | CCc1cnn2c(NCc3ccc[n+]([O-])c3)cc(N3CCCC[C@H]3CCO)nc12 [Dinaciclib] | > 10 | > 10 | > 10 | 0.01 | > 10 | 0.01 | 0.1 | 0.01 | 0.01 | > 10
3 | CCOc1cc(C(C)(C)C)ccc1C1=N[C@@](C)(c2ccc(Cl)cc2)[C@@](C)(c2ccc(Cl)cc2)N1C(=O)N1CCN(CCCS(C)(=O)=O)CC1 | > 10 | > 10 | > 10 | > 10 | > 10 | > 10 | > 10 | > 10 | > 10 | > 10
4 | CC(C)(C(=O)NCC(F)(F)C(F)(F)F)C(=O)N[C@@H]1C(=O)Nc2ccccc2-c2ccccc21 | > 10 | 3.76 | > 10 | > 10 | > 10 | > 10 | > 10 | > 10 | > 10 | > 10
5 | COc1cc2nc(N3CCCN(C)CC3)nc(NC3CCN(Cc4ccccc4)CC3)c2cc1OC | 6.69 | 0.15 | 1.01 | 1.38 | 6.05 | 6.57 | 1.82 | 1.72 | 0.2 | 3.14
6 | C[C@]1(O)C[C@@H](c2nc(-c3ccc4ccc(-c5ccccc5)nc4c3)c3c(N)nccn32)C1 [OSI-906] | > 10 | > 10 | > 10 | > 10 | > 10 | > 10 | > 10 | 1.07 | 0.02 | > 10
7 | C[C@@H](Oc1ccc2[nH]nc(/C=C/c3cnn(CCO)c3)c2c1)c1c(Cl)cncc1Cl | 0.46 | > 10 | > 10 | 0.19 | – | > 10 | 0.5 | – | 4.52 | 1.73
8 | O=C(O)c1ccc2c(c1)nc(Nc1cccc(Cl)c1)c1ccncc12 [CX-4945] | 1.2 | 1.14 | 0.14 | > 10 | – | > 10 | 6.52 | – | > 10 | > 10
9 | COCC[n+]1c2c(n(Cc3cnccn3)c1C)C(=O)c1ccccc1C2=O [YM155] | 0.16 | 0.28 | 0.01 | 0.07 | – | 0.01 | 0.27 | – | 0.02 | 0.15
10 | Cc1[nH]c2ccccc2c1CCNCc1ccc(/C=C/C(=O)NO)cc1 [Panobinostat] | 0.11 | 0.18 | 0.15 | 0.23 | – | 0.02 | 0.17 | – | 0.12 | 0.53
11 | Cc1cc(Nc2cc(N3CCN(C)CC3)nc(Sc3ccc(NC(=O)C4CC4)cc3)n2)n[nH]1 [Tozasertib] | > 10 | 2.62 | > 10 | > 10 | – | > 10 | 3.33 | – | > 10 | > 10
12 | CC(C)(C)Cn1c(N)nc2ccc(-c3[nH]c(C(C)(C)C)nc3-c3ccc(F)cc3)nc21 | > 10 | > 10 | > 10 | > 10 | – | > 10 | > 10 | – | 5.07 | > 10
13 | CC(=O)c1c(C)c2cnc(Nc3ccc(N4CCNCC4)cn3)nc2n(C2CCCC2)c1=O | > 10 | > 10 | > 10 | > 10 | – | > 10 | > 10 | – | > 10 | > 10
14 | COCC1(CO)C(=O)C2CCN1CC2 (stereo not drawn) [APR-246] | > 10 | > 10 | > 10 | > 10 | – | > 10 | 0.12 | – | 0.13 | > 10
15 | Nc1nc(Nc2ccc(S(N)(=O)=O)cc2)nn1C(=S)Nc1c(F)cccc1F [Cdk1/2 inhibitor III] | 1.1 | 0.29 | > 10 | 0.42 | – | 0.13 | 1.02 | – | 0.2 | 1.41
16 | CCOC(=O)CCNc1cc(N2CCc3ccccc3CC2)nc(-c2ccccn2)n1 [GSK-J4 HCl] | > 10 | > 10 | > 10 | > 10 | – | 4.72 | > 10 | – | 1.58 | > 10
17 | CS(=O)(=O)c1cccc(CNc2nc(Nc3ccc4c(c3)CCC(=O)N4)ncc2C(F)(F)F)c1 | > 10 | > 10 | > 10 | > 10 | – | > 10 | > 10 | – | > 10 | > 10
18 | CO[C@H]1C[C@@H]2CC[C@@H](C)[C@@](O)(O2)C(=O)C(=O)N2CCCC[C@H]2C(=O)O[C@H]([C@H](C)C[C@@H]2CC[C@@H](O)[C@H](OC)C2)CC(=O)[C@H](C)/C=C(\C)[C@@H](O)[C@@H](OC)C(=O)[C@H](C)C[C@H](C)/C=C/C=C/C=C/1C [Sirolimus] | > 10 | 0.29 | > 10 | > 10 | – | > 10 | > 10 | – | > 10 | > 10
19 | COc1ccc(C[C@@H](C)[C@@H](C)Cc2ccc(OC)c(OC)c2)cc1OC [EM1421] | > 10 | > 10 | > 10 | > 10 | – | > 10 | > 10 | – | > 10 | > 10
20 | C=CCn1c(=O)c2cnc(Nc3ccc(N4CCN(C)CC4)cc3)nc2n1-c1cccc(C(C)(C)O)n1 [MK-1775] | > 10 | 0.16 | 1.01 | > 10 | – | 0.3 | > 10 | – | 0.17 | > 10
21 | Clc1ccc(NN=C(c2ccccc2)c2ccccn2)nc1 [JIB-04] | 1.62 | 1.41 | 2.4 | 1.14 | – | 1.69 | 3.73 | – | 0.6 | > 10
22 | Cc1ccc(-c2cc(C(F)(F)F)nn2-c2ccc(S(N)(=O)=O)cc2)cc1 [Celecoxib] | > 10 | > 10 | > 10 | > 10 | – | > 10 | > 10 | – | > 10 | > 10
